In US8153797B2, “Chromen-2-one derivatives and their use as monoamine neurotransmitter re-uptake inhibitors” (Neurosearch A/S, priority 2006, dated 2012):
Structures can show the parent of a compound that is named as a salt. Where two headings read alike, the source gives them in different places.

Tests used:
[1] = biological target: T1, reuptake of serotonine (5-HT) in synaptosomes (Rattus norvegicus, UniProt P31652); test: Inhibition of serotonin reuptake in synaptosomes; format: biochemical
T1 construct: in synaptosomes as described in WO 97/16451; from tissue; method in WO 97/16451
T1 sequence (P31652 whole entry): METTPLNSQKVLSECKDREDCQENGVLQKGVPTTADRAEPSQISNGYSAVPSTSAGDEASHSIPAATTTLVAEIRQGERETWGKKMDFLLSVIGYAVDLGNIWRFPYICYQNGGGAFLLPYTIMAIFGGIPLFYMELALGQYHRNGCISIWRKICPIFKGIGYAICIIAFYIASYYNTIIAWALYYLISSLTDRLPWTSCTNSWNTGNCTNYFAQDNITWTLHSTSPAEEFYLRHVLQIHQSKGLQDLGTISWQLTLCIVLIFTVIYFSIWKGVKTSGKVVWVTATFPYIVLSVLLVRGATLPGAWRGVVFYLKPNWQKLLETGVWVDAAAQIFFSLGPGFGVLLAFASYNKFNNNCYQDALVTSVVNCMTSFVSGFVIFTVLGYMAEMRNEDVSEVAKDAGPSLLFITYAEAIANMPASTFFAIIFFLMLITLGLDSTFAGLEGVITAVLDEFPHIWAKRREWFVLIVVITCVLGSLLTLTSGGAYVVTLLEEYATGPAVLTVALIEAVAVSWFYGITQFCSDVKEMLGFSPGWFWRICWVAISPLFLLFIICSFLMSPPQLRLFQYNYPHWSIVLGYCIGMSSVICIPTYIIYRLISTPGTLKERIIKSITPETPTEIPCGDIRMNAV
Experimental: A number of compounds were tested for their ability to inhibit the reuptake of the monoamine neurotransmitters dopamine (DA) noradrenaline (NA) and serotonine (5-HT) in synaptosomes as described in WO 97/16451.
The test values are given as IC50 (the concentration (μM) of the test substance which inhibits the specific binding of ^3H-DA, ^3H-NA, or ^3H-5-HT by 50%).

[2] = biological target: T2, reuptake of dopamine (DA) in synaptosomes (Rattus norvegicus, UniProt P23977); test: Inhibition of dopamine reuptake in synaptosomes; format: biochemical
T2 construct: in synaptosomes as described in WO 97/16451; from tissue; method in WO 97/16451
T2 sequence (P23977 whole entry): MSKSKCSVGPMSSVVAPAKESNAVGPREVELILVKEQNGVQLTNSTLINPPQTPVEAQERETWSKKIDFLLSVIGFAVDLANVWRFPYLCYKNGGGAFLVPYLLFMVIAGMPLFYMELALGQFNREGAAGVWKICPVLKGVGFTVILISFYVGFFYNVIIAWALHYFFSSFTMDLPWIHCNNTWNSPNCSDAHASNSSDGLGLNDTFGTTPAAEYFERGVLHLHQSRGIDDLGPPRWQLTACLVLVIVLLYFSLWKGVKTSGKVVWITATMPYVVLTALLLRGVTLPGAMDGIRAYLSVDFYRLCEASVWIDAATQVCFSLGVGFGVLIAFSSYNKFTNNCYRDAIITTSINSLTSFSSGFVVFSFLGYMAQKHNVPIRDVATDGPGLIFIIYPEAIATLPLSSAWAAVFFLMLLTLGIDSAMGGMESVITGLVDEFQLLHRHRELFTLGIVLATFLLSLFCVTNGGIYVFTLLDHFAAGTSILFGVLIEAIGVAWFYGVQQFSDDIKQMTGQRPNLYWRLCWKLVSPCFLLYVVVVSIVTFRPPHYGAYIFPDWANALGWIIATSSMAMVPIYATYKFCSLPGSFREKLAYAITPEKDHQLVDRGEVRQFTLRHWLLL

[3] = biological target: T3, reuptake of noradrenaline (NA) in synaptosomes (Rattus norvegicus, UniProt Q63380); test: Inhibition of noradrenaline reuptake in synaptosomes; format: biochemical
T3 construct: in synaptosomes as described in WO 97/16451; from tissue; method in WO 97/16451
T3 sequence (Q63380 1-617): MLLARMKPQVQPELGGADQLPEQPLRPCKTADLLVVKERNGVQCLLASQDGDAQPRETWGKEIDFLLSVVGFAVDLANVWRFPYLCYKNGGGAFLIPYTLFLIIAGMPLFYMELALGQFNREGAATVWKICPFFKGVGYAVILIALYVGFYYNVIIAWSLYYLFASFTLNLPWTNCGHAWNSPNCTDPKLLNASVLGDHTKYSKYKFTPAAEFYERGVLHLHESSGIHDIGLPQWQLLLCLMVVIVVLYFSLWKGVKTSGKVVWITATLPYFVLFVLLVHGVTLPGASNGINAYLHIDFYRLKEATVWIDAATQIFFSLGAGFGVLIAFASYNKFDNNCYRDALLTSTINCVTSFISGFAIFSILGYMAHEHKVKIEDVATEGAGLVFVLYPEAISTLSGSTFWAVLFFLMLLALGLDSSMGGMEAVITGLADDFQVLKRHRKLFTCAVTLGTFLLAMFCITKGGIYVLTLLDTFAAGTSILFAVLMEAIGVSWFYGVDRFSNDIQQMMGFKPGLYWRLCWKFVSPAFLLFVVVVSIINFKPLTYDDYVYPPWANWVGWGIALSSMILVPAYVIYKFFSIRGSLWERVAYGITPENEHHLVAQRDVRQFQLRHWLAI

[4] = 3H-5-HT, synaptosomes, read-out: 5-HT-uptake IC50

Row | Structure (SMILES) | melting point [°C] | IC50 [1, 4] [µM] | IC50 ([2]; 3H-DA, synaptosomes, read-out: DA-uptake IC50) [µM] | IC50 ([3]; 3H-NA, synaptosomes, read-out: NA-uptake IC50) [µM] | IC50 [1] [µM] | IC50 [2] [µM] | IC50 [3] [µM]
1 | CN1[C@@H]2C=C[C@H]1C[C@H](Oc1ccc3ccc(=O)oc3c1)C2 (as salt: hydrochloric acid salt) [First compound of Method 4B, exo-7-(8-Methyl-8-aza-bicyclo[3.2.1]oct-6-en-3-yloxy)-chromen-2-one hydrochloric acid salt] | > 275 |  |  |  |  |  | 
2 | CN1[C@@H]2CC[C@H]1C[C@H](Oc1ccc3cc(Br)c(=O)oc3c1)C2 [First compound of Method 2B, exo-3-Bromo-7-(8-methyl-8-aza-bicyclo[3.2.1]oct-3-yloxy)-chromen-2-one hydrochloric acid salt] |  | 0.0012 | 0.044 | 0.017 |  |  | 
3 | CN1[C@@H]2C=C[C@H]1C[C@H](Oc1ccc3ccc(=O)oc3c1)C2 [First compound of Method 4B, exo-7-(8-Methyl-8-aza-bicyclo[3.2.1]oct-6-en-3-yloxy)-chromen-2-one hydrochloric acid salt] |  |  |  |  | 0.036 | 0.7 | 0.72
4 | O=c1oc2cc(O[C@@H]3C[C@H]4CC[C@@H](C3)N4)ccc2cc1Cl [Second last compound of Method 2B, exo-7-(8-Aza-bicyclo[3.2.1]oct-3-yloxy)-3-chloro-chromen-2-one hydrochloric acid salt] |  | 0.00059 |  |  |  | 0.054 | 0.014
